Measurements from patent US20130274196A1, “METHOD FOR TREATMENT OF INFLAMMATORY DISEASE AND DISORDER” (HEALOR LTD., priority 2010, published 2013).
“Also recorded” adds a separate entry of the source. The star is where a group is joined. Myristoyl = CCCCCCCCCCCCCC(=O)*

Key:
macrophages = experiment: Macrophage infiltration in skin wound (Iba-1 staining); format: in vivo, C57BL/6J mouse; conditions: daily treatment, five days post-wounding
Description: The effect of MPDY-1 on macrophage infiltration was also shown by Iba-1 staining. Iba-1 is a general marker for macrophages. […] As above, a two-cm longitudinal incision was done on the upper back of a C57BL/6J mouse. Following wounding, a sterile pad was sutured to the mouse's skin. Animals were treated daily with MPDY-1 (n=6). Five days post-wounding, when inflammatory phase reaches its peak, the mice were sacrificed, skin tissues were embedded in paraffin and immunohistochemical staining was performed utilizing anti-Iba-1 antibodies.

activated macrophages = experiment: Macrophage activation in skin wound (MAC-2 staining); format: in vivo, C57BL/6J mouse; conditions: daily treatment, 5 days; p(control vs 10 μg)=0.0028
Description: The effect of MPDY-1 on macrophage activation was also shown by MAC-2 staining. MAC-2 is a specific marker for activated macrophages. […] A two-cm longitudinal incision was done as described above. Animals were treated daily with DPBS^−/− (Control) or MPDY-1 in the specified concentrations (n=6). After 5 days immunohistochemical staining was performed utilizing anti-MAC-2 antibodies. Bar […]. (*p(control Vs. MPDY-1 10 μg)=0.0028).

IKK = experiment: TNFα induced IKK activation in keratinocytes (phospho-IKKa/b Western blot); format: cell-based, Murine; conditions: 1 hour pretreatment, TNFα 35 ng/ml 15 minutes
Description: Murine primary keratinocytes were grown for 4 days to full confluence in Low Ca^+2 MEM. Cells were pretreated with designated concentration of MPDY-1 as described in the figure for 1 hour, prior to TNFα induction. Following MPDY-1 pretreatment, cells were incubated with TNFα 35 ng/ml for 15 minutes. Reaction was stopped by adding ice-cold dPBS−/− and keratinocytes were homogenized in RIPA buffer. Samples were subjected to SDS PAGE Western Blot analysis, utilizing phospho-IKKa/b (Ser176/180 antibody).

keratinocytes [1] = experiment: Cytokine secretion in LPS, TNFα or IL-17 activated keratinocytes treated with peptide PKCα inhibitors (ELISA); format: cell-based, BALB/C mice
Description: To determine their effects, keratinocytes were derived from newborn BALB/C mice skin. The cells were incubated for 5 days in 24 wells plate. Cells were then incubated with PBS −/− as control or stimulated by LPS, TNFα, or IL-17. PKCα inhibitors were added as indicated. Medium containing secreted cytokines was collected after 48 hr and analyzed using ELISA. FIG. 50 is a tabular summary of cytokine secretion.

EAE mice = experiment: Experimental allergic encephalomyelitis (EAE), MOG35-55/CFA immunized mice; format: in vivo, C57BL/6J mice; conditions: for Score on day 18 / Score on day 29 / Score on day 37: EAE scale 0-6; for EAE score on the initial day: scale 0-6
[2] = system: histamine induced pruritus; experiment: Histamine prick test model of pruritus; format: in vivo, healthy volunteers; conditions: for Pruritus score: scale 0-4, individual subject
Description: Forearms of individual subjects were injected with histamine solution and placebo. The formulation of Example 4 was topically applied with MPDY-1 at various concentrations and pruritus was assessed over a time course as shown in FIGS. 39-42.
This test was performed by placing a drop of a solution containing a possible allergen on the skin, and a series of scratches or needle pricks allow the solution to enter the skin. The extract enters into the outer layer of the skin (epidermis) using a fine needle (such as a. 26G disposable needle). This testing is not painful, and generally there is no bleeding involved since the needle only scratches the surface of the skin. If the skin develops a red, raised itchy area (called a wheal), it is as a result of allergic reaction to that allergen. This is called a positive reaction. A drop of extract is introduced through a fine needle (such as a No. 26 disposable needle). The test causes no discomfort and minimal trauma so that controls and negative test show only the site of the prick; if anything.
26G needles were utilized to introduce histamine stock (Histatrol Positive Control Histamine, 1 mg/ml, code #HIST14999V, Trupharm). The test was conducted on healthy volunteers in a double-blind, randomized test. The formulations were applied on the forearms. Three treatment areas were chosen and marked (the surface of the forearm from the elbow to the wrist was divided transversely into proximal, middle and distal thirds); the areas were pricked prior the below treatments.
An area was treated with the active formulation in a double-blind manner, for 10 minutes—marked as A.
An area was treated with the Placebo in a double-blind manner, for 10 minutes—marked as C.
A color photograph was taken at time zero (T0), after 10, 20, 30 minutes.
Pruritus questionnaire was answered by the subjects 5 and 15 minutes after treatment.
Subjects were provided with pruritus sensation forms and asked to indicate the level of pruritus sensed from 0 (no response) to 4 (uncontrollable pruritus) at different time intervals.

C57BL mice = experiment: Incision wounds treated 7 days, severe inflammation incidence (Example 10); format: in vivo; conditions: 1 μM daily for 7 days
Description: Wounds were performed on the back of C57BL mice by incision and were treated daily for 7 days with: (i) PBS, control; (ii) 1 μM of the PKCα inhibitor of SEQ ID NO: 6; (iii) 1 μM insulin (Humulin, Eli Lilly, USA); or (iv) a mixture of 1 μM PKCα inhibitor and 1 μM insulin.

[3] = system: STZ-induced diabetic C57BL/6J mice; experiment: Wound healing in STZ-induced diabetic mice; format: in vivo
Description: Full thickness skin incisions (20 mm) were performed on the upper back of anesthetized streptozocin (STZ)-injected (175 mg/kg body weight) diabetic, citrate buffer injected (6 mice/group) non-diabetic, and non-injected (6 mice/group), C57BL/6J mice. Periodical blood glucose monitoring was performed by measuring glucose levels from tail vein after STZ injection. […] Following incision, STZ-induced diabetic wounds were treated daily by application of PBS (7/6 mice/group), insulin (0.1 units/ml) (6 mice/group), the PKCa inhibitor of SEQ ID NO:6 (1 μg/ml) (7/5 mice/group) or a formulation (herein designated HO/03/03) containing insulin and the N-myristoylated PKCα inhibitor of SEQ ID NO: 6 (7/6 mice/group) directly to the surgical dressing. Biopsies were collected 9 days post-wounding. Wounds were excised from euthanized animals for evaluation of wound-healing parameters by histology and immunohistochemistry.
Wounds were assessed for epidermal closure by Keratin 14 staining. Wounds were considered closed when complete epidermal staining was observed across the wound gap. Dermal contraction was considered when both dermal edges were visible in a fixed field ×100 magnification utilizing H&E staining. Epidermal differentiation was assessed by Keratin 1 staining.
The organization of hypodermis was assessed by the presence (or absence) of hypodermis at both wound edges. Granulation tissue formation was assessed by the presence of fibroblasts and collagen fibers in the wound bed. The wound was considered positive for granulation tissue formation when a continuous layer of granulation tissue was present in the wound gap. In addition, we have defined 3 specific histological parameters characterizing severe inflammation of diabetic wounds: (i) abscess formation at the wounded area, (ii) excessive leukocytosis (>100 cells in a fixed field (×200)) and (iii) high white blood cells (WBC)/red blood cells (RBC) ratio within the blood vessels shown in a fixed field (×200). When at least 2 of these parameters are present at the wound gap, the wound is considered severely inflamed.

keratinocytes [4] = experiment: Cytokine secretion in stimulated keratinocytes treated with PKCδ activator (ELISA); format: cell-based, BALB/C mice; conditions: stimulated by LPS or TNFα, 48 hr
Description: (§1) PKCδ activators were also shown to have an anti-inflammatory effect on keratinocytes and splenocytes. Keratinocytes were derived from newborn BALB/C mice skin. The cells were incubated for 5 days in 24 wells plate. Cells were then incubated with PBS −/− as control or stimulated by LPS or TNFα. The PKCδ […] DAP-1 (SEQ ID NO: 34) was added. Medium containing secreted cytokines was collected after 48 hr and analyzed using ELISA. FIG. 43 is a tabular summary showing cytokine secretion in splenocytes stimulated with LPS. FIG. 44 is a tabular summary of cytokine secretion in keratinocytes stimulated by TNFα.

splenocytes = experiment: Cytokine secretion in LPS stimulated splenocytes treated with PKCδ activator; format: cell-based
Description: as §1

[5] = 9-days post wounding, percent of wounds in group, insulin 0.1 units, HO/02 1 ug/ml
[6] = 9-days post wounding, percent of wounds in group, insulin 0.1 units, SEQ ID NO: 6 1 ug/ml

Myristoyl-Phe-Ala-Arg-Lys-Gly-Ala-Leu-Arg-Gln-OH (Myristoyl-FARKGALRQ-OH; SMILES CCCCCCCCCCCCCC(=O)N[C@@H](Cc1ccccc1)C(=O)N[C@@H](C)C(=O)N[C@@H](CCCNC(=N)N)C(=O)N[C@@H](CCCCN)C(=O)NCC(=O)N[C@@H](C)C(=O)N[C@@H](CC(C)C)C(=O)N[C@@H](CCCNC(=N)N)C(=O)N[C@@H](CCC(N)=O)C(=O)O) [MPDY-1]
macrophage infiltration (Iba-1 positive cells per field) (macrophages): dose dependent effect
activation of macrophages (MAC-2 positive cells per field) (activated macrophages): significantly inhibited
TNFα induced IKK activation in keratinocytes (IKK): significantly reduced TNFα induced IKK activation
concentration exhibiting the strongest inhibition of IKK activation (lowest concentration) (IKK): 0.1 mg/mL
cytokine secretion from IL-17A activated keratinocytes (keratinocytes [1]; IL-17A activated): decrease cytokine secretion
cytokine secretion from LPS and TNFα activated keratinocytes (keratinocytes [1]; LPS and TNFα activated): decrease cytokine secretion
cytokine secretion in keratinocytes (keratinocytes [1]; stimulated by LPS, TNFα, or IL-17, medium collected after 48 hr): effective in decreasing cytokine secretion
The initial day (of illness signs) (EAE mice; 0.1 mg/kg): 13 days
EAE severity / score compared to control group (EAE mice; 0.1 mg/kg (0.1 μg/ml)): lower score during most of the experiment days; also recorded: reduced EAE severity
delay of development of EAE clinical conditions compared to control group (EAE mice; 0.1 mg/kg (0.1 μg/ml)): two days later than the control group; also recorded: two days delay
Score on day 18 (EAE mice; 0.1 mg/kg): 2.571
Score on day 29 (EAE mice; 0.1 mg/kg): 2.000
Score on day 37 (EAE mice; 0.1 mg/kg): 1.500
EAE score on the initial day (EAE mice; 0.1 mg/kg): 1.000
The initial day (of illness signs) (EAE mice; 1 mg/kg): 11 days
Number of dead mice during 49 days (EAE mice; 1 mg/kg i.p. three times a week, n=7): 2
Score on day 18 (EAE mice; 1 mg/kg): 3.143
Score on day 29 (EAE mice; 1 mg/kg): 3.286
Score on day 37 (EAE mice; 1 mg/kg): 3.071
EAE score on the initial day (EAE mice; 1 mg/kg): 0.214
average group score at the end of the experiment (day 42) (EAE mice; concentration of 0.1 μg/ml, control group score 2.86): 1.93
Pruritus score ([2]; 5 minutes after histamine, MPDY-1 1 μg/ml (A1)): 3
Pruritus score ([2]; 5 minutes after histamine, MPDY-1 10 μg/ml (A2)): 2
Pruritus score ([2]; 15 minutes after histamine, MPDY-1 1 μg/ml (A1)): 1
Pruritus score ([2]; 15 minutes after histamine, MPDY-1 10 μg/ml (A2)): 0
redness, inflammation and pruritus compared with control over the time course ([2]; topical application): significantly attenuated redness, inflammation and pruritus
decrease of severe wound inflammation incidence, as compared to control (C57BL mice): 33.3%
Incidence of severe inflammation in wound (%) (C57BL mice; PBS control 60): 40%
Dermal closure (H&E) [3, 5]: 17%
Epidermal closure (K14) [3, 5]: 17%
Epidermal differentiation (Kl) [3, 5]: 17%
Granulation tissue [3, 6]: 50%
Hypodermis [3, 6]: 10%
Severe inflammation [3, 6]: 30%
overall healing effect in diabetic wounds ([3]; 9 days post-wounding): only partial healing effects

H-His-Phe-Glu-Asp-Trp-Ile-Asp-His-Phe-Glu-Asp-Trp-Ile-Asp-OH (H-HFEDWIDHFEDWID-OH) [DAP-1]
inflammatory cytokine secretion in keratinocytes (keratinocytes [4]): significantly decease inflammatory cytokine secretion
inflammatory cytokine secretion in splenocytes (splenocytes): significantly decease inflammatory cytokine secretion
